# Measurements from PMC5862576, “Mitochondrial fission as a driver of stemness in tumor cells: mDIVI1 inhibits mitochondrial function, cell migration and cancer stem cell (CSC) signalling” (Oncotarget, 2018).
# Tests used:
# Type in all cases: cell-based, Human
# MCF7 cells [1] = assay: Label-free semi-quantitative proteomics; conditions: 10 µM, 48 hours vs vehicle
# Procedure: HPLC gradient grade acetonitrile was obtained from Fisher Scientific. Briefly, 2 × 10^6 MCF7 cells were seeded in 15 cm plates until cells were attached. […] As control, vehicle-treated cells were processed in parallel. After 48 hours of treatment, cells were lysed in RIPA buffer (R0278, Sigma) and kept at 4° C for 20 minutes with rotation. Lysates were cleared by centrifugation for 10 minutes at 10,000 × g and supernatants were collected and kept frozen at −80° C. Lysate samples were thawed to room temperature and their concentrations equalised to 1 µg/µL (50 µL volume) with RIPA buffer, and further processed for trypsin digestion by sequential reduction of disulphide bonds with TCEP and alkylation with MMTS. Briefly, 1 µL benzonase (Novagen) was added to the 50 µL aliquot and placed on ice for 15 minutes. The sample was then taken to dryness using a SpeedVac, and resuspended in 22.5 µL trypsin reaction buffer (40 mM ammonium bicarbonate and 9% acetonitrile). One µL of 50 mM TCEP solution was added to each sample, mixed briefly and placed on a heater block at 60° C for 60 minutes. After cooling to room temperature, 0.5 µL of 200 mM MMTS solution was added to each sample and allowed to react for 15 minutes. Trypsin was added in two waves to ensure efficient digestion of the sample. Firstly, 20 µg of sequencing grade trypsin was resuspended in 1800 µL of trypsin reaction buffer; 225 µL of this solution were added to each sample for digestion, and the reactions were left at 37° C overnight with shaking (600 rpm). The following morning, a further aliquot of trypsin was added. Two ml of trypsin reaction buffer was added to […] of sequencing grade trypsin; 250 µL of this solution were added to each of the digest samples from overnight, and the reactions were left at 37° C for 4 hours with shaking (600 rpm). […] The digested solution was diluted in 7.5 mL of acetonitrile containing 0.3% formic acid. PolyhydroxyethylA SPE 12 µm, 300A, 300mg cartridges (obtained from PolyLC) were used for the HILIC procedure. Prior to use, cartridges required an overnight soak in 50 mM formic acid followed by rinsing with water the following day. […] The diluted samples were loaded onto the cartridges and washed with a further 10 mL Buffer A. Finally, peptides were eluted in 1 mL Buffer C (9 parts Buffer B plus 1 part Buffer A) and the samples dried on a Speedvac to remove organic solvent prior to LC-MS/MS analysis. Lyophilised digests were resuspended in 50 µL of 0.1% TFA to give an approximate concentration of 1 µg/µL. One µL injection volumes were used throughout resulting in an on-column peptide loading of approximately 1 µg per injection. Analysis was performed in quintuplicate for each sample. All LC-MS/MS analyses were performed on an LTQ Orbitrap XL mass spectrometer coupled to an Ultimate 3000 RSLCnano system (Thermo Scientific). One µL injection volumes were used throughout and samples loaded directly onto the analytical column, PepMap RSLC C18, 2 µm × 75 µm id × 50 cm (Thermo Scientific). The composition (v/v) of LC buffers were as follows; […] Peptides were loaded directly onto the column at a flow rate of 400 nl/min with an initial mobile phase composition of 1% B. […] The column was then allowed to re-equilibrate to 1% B for a total analysis time of 74 minutes. The mass spectrometer was instructed to perform data dependent acquisition on the top six precursor ions, which were measured in the Orbitrap FTMS detector over the mass range 370–1200 m/z, at a nominal resolution of 60,000. […] Gas-phase fractionation was performed on the five replicate injections such that MS/MS data was collected for precursor ion range 370–494 m/z Injection 1, 494–595 m/z Injection 2, 595–685 m/z Injection 3, 685–817 m/z Injection 4 and 817–1200 m/z Injection 5. Xcalibur raw data files acquired on the LTQ-Orbitrap XL were directly imported into Progenesis LCMS software (Waters Corp) for peak detection and alignment. Data were analysed using the Mascot search engine. […]
# MCF7 cells [2] = assay: Mitochondrial staining (MitoTracker Deep Red, microscopy); conditions: 10 µM, 2 days or 5 days
# Procedure: One hundred thousand MCF7 cells were seeded onto coverslips in 12-well plates. When cells were attached, mDIVI1 and vehicle treatments were performed in triplicate. After 2 days and 5 days, mitochondria were labeled by incubating cells for 15 min at 37° C with 25 nM of MitoTracker DeepRed (M22426, Invitrogen) diluted in PBS ([…], Sigma). Then, cells were washed with PBS, fixed in 2% paraformaldehyde (28908, Thermo Scientific) in PBS for 30 minutes at room temperature and mounted with ProLong® Gold Antifade Mountant reagent with DAPI (P36935, Invitrogen, Inc.). Immunofluorescence pictures were taken in a Leica gated Stimulated Emission Depletion Microscopy (gSTED) with additional confocal and multi-photon illumination (room rg106).
# TGFβ signalling = assay: Luciferase reporter assay MCF7-GFP-SMAD(luc); conditions: 50 µM, 2 and 5 days
# Procedure: The Cignal Lenti reporter assay (luc) was used to monitor the activity of several signalling pathways in MCF7-GFP cells as explained previously. Luciferase Assay System (E1501, Promega) was performed according to manufacturer’s instructions. 1 × 10^4 MCF7 were seeded in black-walled 96 well plates. When cells were attached, drug treatments were added for 18, 48 hours and 5 days. After treatment, Luciferase Assay was performed according to manufacturer’s instructions and light signal was acquired in the Xenogen VivoVision IVIS Lumina. Results were normalized by SRB staining of cells grown in 96-well plates in parallel.
# SRB (S9012, Sigma) measures total biomass by staining cellular proteins. After treatment, cells were fixed in 10% tricloroacetic acid (T9159, Sigma) for 1 hour at 4° C, stained with SRB (S9012, Sigma) for 15 minutes, and washed 3 times with 1% acetic acid (27225, Sigma). The incorporated die was solubilized with 10 mM Tris Base, pH 8.8 (T1503, Sigma). Absorbance was spectrophotometrically measured at 562 nm in a FluoStar Omega plate reader (BMG Labtech). Background measurements were subtracted from all values.
compound,measurement,setting,value
"COc1cc(-n2c(=S)[nH]c3ccccc3c2=O)c(Cl)cc1Cl [mDIVI1, 3-(2,4-Dichloro-5-methoxyphenyl) 2,3-dihydro 2-thioxo-4(1H) quinazolinone]",BMP7 expression change (proteomics),MCF7 cells [1],-47.17
same,CELSR2 expression change (proteomics),MCF7 cells [1],−1.6
same,EPCAM expression change (proteomics),MCF7 cells [1],−1.58
same,EphA2 expression change (proteomics),MCF7 cells [1],-1.74
same,F11 receptor expression change (proteomics),MCF7 cells [1],−1.70
same,LAMP1 upregulation (proteomics),MCF7 cells [1],2.83
same,STAT3 expression change (proteomics),MCF7 cells [1],-1.83
same,ZO-1 expression change (proteomics),MCF7 cells [1],−1.62
same,collagen type IV upregulation (proteomics),MCF7 cells [1],1.9 fold
same,desmoplakin expression change (proteomics),MCF7 cells [1],−4.58
same,junction plakoglobin expression change (proteomics),MCF7 cells [1],−1.65
same,keratin 8 expression change (proteomics),MCF7 cells [1],−5.24
same,keratin 18 expression change (proteomics),MCF7 cells [1],−12.21
same,Hexokinase 1 (HK1) change in expression,MCF7 cells [1]; Glycolysis,↓Infinite
same,mitochondrial morphology,MCF7 cells [2],more interconnected mitochondria
same,TGFβ/SMAD pathway luciferase activity,TGFβ signalling,strikingly caused the inhibition
